15 molecules from patent US20100029681A1, “HETEROCYCLIC COMPOUNDS AS CALCIUM CHANNEL BLOCKERS” (priority 2006, published 2010) can be followed below.

Like-named read-outs stand apart in the source and are kept apart here.

By IC50 is commonly meant the point on the concentration scale where inhibition reaches its midpoint.

This test concerns the target T1, rat brain N-type calcium channel subunits (α1B+α2δ+β1b cDNA subunits) (Rattus norvegicus, UniProt Q02294).
T1 construct: expressed in transfected cells; host or cells: HEK 293
The test can be described thus: N-type calcium channel block, whole cell patch clamp in transfected HEK 293 cells. The format is cell-based. On the procedure:
N-type calcium channel blocking activity was assayed in human embryonic kidney cells, HEK 293, stably transfected with the rat brain N-type calcium channel subunits (α1B+α2δ+β1b cDNA subunits). Alternatively, N-type calcium channels (α1B+α2δ+β1b cDNA subunits), L-type channels (α1C+α2δ+β1b cDNA subunits) and P/Q-type channels (α1A+α2δ+β1b cDNA subunits) were transiently expressed in HEK 293 cells. Briefly, cells were cultured in Dulbecco's modified eagle medium (DMEM) supplemented with 10% fetal bovine serum, 200 U/ml penicillin and 0.2 mg/ml streptomycin at 37° C. with 5% CO2. At 85% confluency cells were split with 0.25% trypsin/1 mM EDTA and plated at 10% confluency on glass coverslips. At 12 hours the medium was replaced and the cells transiently transfected using a standard calcium phosphate protocol and the appropriate calcium channel cDNA's. Fresh DMEM was supplied and the cells transferred to 28° C./5% CO2. Cells were incubated for 1 to 2 days prior to whole cell recording.
Whole cell patch clamp experiments were performed using an Axopatch 200B amplifier (Axon Instruments, Burlingame, Calif.) linked to a personal computer equipped with pCLAMP software. The external and internal recording solutions contained, respectively, 5 mM BaCl2, 10 mM MgCl2, 10 mM HEPES, 40 mM TEACl, 10 mM glucose, 87.5 mM CsCl (pH 7.2) and 108 mM CsMS, 4 mM MgCl2, 9 mM EGTA, 9 mM HEPES (pH 7.2). Currents were typically elicited from a holding potential of −80 mV to +10 mV using Clampex software (Axon Instruments). Typically, currents were first elicited with low frequency stimulation (0.067 Hz) and allowed to stabilize prior to application of the compounds. The compounds were then applied during the low frequency pulse trains for two to three minutes to assess tonic block, and subsequently the pulse frequency was increased to 0.2 Hz to assess frequency dependent block. Data were analyzed using Clampfit (Axon Instruments) and SigmaPlot 4.0 (Jandel Scientific).
(In general: The patch-clamp technique gives a direct electrical read-out from membranes.)

[1] abbreviates: −50 mV, read-out: IC50 @ −50 mV.
[2] abbreviates: −80 mV, read-out: IC50 @ −80 mV.

T1 sequence (Q02294 whole entry): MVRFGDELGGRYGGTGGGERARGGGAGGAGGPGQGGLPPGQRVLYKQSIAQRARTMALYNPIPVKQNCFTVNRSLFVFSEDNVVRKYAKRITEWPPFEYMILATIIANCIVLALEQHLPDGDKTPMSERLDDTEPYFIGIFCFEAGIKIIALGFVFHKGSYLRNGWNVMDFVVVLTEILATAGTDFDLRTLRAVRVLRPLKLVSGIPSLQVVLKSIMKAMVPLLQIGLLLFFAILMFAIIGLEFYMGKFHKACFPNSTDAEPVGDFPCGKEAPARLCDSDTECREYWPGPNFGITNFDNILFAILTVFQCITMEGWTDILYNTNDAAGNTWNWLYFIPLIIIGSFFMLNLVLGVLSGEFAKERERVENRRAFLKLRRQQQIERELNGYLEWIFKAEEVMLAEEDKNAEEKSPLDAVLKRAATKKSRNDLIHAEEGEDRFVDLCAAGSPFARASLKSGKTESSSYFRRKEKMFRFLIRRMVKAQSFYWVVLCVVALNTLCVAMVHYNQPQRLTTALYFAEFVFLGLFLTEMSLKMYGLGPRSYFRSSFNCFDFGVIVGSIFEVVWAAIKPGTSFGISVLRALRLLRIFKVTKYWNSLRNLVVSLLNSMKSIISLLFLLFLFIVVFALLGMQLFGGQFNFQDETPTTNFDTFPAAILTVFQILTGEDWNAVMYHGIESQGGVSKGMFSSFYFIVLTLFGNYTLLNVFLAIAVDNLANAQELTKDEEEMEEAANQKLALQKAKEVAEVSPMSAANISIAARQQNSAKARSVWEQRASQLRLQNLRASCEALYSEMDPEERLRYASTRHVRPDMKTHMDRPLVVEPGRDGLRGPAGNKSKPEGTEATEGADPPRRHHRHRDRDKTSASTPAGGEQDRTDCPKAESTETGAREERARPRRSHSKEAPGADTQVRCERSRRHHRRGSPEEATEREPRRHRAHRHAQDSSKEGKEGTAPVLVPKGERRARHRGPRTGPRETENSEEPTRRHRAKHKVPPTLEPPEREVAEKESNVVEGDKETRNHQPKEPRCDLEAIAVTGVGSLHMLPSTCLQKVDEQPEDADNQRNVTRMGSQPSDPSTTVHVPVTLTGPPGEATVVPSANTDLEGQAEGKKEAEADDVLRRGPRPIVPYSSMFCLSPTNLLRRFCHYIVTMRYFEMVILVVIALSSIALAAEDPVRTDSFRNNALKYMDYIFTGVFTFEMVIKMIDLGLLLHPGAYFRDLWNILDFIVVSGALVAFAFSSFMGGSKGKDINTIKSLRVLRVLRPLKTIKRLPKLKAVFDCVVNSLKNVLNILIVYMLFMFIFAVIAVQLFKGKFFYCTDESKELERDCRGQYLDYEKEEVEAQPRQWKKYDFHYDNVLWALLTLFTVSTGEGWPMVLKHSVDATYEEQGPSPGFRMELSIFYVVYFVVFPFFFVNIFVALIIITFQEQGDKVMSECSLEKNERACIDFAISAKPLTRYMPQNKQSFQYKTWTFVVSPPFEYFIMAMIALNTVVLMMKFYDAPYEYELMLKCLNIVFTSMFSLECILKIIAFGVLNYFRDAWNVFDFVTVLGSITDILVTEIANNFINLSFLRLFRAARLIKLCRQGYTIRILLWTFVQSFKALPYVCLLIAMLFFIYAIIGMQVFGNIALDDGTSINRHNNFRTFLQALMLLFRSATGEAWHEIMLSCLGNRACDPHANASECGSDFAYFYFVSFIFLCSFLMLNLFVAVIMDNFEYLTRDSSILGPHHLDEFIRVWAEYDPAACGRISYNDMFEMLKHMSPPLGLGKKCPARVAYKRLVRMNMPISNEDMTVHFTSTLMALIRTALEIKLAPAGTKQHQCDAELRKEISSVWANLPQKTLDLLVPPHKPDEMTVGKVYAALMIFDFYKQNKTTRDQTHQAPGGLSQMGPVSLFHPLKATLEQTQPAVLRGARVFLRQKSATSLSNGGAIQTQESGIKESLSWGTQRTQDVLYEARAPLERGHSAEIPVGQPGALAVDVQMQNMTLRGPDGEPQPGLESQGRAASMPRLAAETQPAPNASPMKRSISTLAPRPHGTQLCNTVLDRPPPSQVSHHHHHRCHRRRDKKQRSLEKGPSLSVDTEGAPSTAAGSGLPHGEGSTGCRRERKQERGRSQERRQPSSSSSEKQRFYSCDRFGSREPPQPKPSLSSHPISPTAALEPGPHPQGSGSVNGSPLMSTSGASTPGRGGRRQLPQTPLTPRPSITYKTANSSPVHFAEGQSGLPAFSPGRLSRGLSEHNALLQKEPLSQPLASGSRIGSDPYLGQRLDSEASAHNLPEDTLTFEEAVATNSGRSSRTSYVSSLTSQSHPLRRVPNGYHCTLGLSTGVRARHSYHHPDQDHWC
T1 sequence (P54290 25-944 partner limits assumed): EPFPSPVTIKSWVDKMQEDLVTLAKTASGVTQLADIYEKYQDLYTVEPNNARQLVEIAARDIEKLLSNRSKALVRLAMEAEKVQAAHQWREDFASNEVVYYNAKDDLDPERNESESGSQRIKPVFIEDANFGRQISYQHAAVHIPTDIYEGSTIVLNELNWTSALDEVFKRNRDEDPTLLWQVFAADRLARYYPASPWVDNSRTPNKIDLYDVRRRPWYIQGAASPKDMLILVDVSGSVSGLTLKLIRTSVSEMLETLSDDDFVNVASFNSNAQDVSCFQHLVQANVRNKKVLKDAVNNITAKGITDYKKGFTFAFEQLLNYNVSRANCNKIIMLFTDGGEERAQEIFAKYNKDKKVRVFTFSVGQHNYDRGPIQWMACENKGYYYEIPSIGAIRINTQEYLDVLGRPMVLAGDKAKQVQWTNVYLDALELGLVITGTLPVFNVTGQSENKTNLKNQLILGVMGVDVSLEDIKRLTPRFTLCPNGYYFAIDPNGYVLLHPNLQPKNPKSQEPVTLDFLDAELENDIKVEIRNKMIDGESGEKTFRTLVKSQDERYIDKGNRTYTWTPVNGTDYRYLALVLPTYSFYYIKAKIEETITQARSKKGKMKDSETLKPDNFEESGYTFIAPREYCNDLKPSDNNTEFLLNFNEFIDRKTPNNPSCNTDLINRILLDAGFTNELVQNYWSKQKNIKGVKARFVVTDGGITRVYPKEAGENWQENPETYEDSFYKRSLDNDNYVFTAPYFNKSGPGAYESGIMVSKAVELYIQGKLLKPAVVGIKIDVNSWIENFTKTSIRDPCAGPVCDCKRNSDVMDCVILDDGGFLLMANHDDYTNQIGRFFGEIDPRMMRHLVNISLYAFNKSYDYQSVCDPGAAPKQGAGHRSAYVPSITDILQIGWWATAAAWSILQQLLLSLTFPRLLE
T1 sequence (P54290 945-1091 partner limits assumed): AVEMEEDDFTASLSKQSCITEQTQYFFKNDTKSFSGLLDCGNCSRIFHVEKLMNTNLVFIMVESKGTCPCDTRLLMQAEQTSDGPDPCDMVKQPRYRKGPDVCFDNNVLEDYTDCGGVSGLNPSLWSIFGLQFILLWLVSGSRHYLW
T1 sequence (P54283 whole entry partner): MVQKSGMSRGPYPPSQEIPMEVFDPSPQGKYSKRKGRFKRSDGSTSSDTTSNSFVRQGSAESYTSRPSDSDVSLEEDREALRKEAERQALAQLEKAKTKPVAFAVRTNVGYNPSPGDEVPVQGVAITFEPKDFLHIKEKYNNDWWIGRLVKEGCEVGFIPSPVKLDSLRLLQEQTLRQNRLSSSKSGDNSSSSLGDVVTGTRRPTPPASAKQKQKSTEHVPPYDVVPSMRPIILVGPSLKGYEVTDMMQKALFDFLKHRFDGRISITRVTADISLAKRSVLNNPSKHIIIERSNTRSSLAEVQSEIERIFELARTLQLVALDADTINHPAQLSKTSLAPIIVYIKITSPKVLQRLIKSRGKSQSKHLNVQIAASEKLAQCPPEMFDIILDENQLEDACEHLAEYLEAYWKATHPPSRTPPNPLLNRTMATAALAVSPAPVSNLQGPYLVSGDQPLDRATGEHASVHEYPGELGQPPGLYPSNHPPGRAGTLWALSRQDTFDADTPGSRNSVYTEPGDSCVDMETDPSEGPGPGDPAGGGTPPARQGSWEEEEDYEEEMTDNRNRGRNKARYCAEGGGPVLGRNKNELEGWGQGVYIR

Turning to `Cc1ccc(-c2csc(NC(=O)CN3CCN(C(c4ccccc4)c4ccccc4)CC3)n2)cc1` [Compound 9, 2-(4-benzhydrylpiperazin-1-yl)-N-(4-p-tolylthiazol-2-yl)acetamide], the IC50 is, setting by setting: under setting [1], 2500 nM; under setting [2], 6400 nM.
On the same counts, the results for `O=C(CN1CCN(C(c2ccc(F)cc2)c2ccc(F)cc2)CC1)Nc1ncc(Cl)s1` [Compound 8, 2-(4-(bis(4-fluorophenyl)methyl)piperazin-1-yl)-N-(5-chlorothiazol-2-yl)acetamide] are 530 nM and 1040 nM.
`O=C(CN1CCN(C(c2ccccc2)c2ccccc2)CC1)Nc1nc2ccc(Cl)cc2s1` [Compound 11, 2-(4-benzhydrylpiperazin-1-yl)-N-(6-chlorobenzo[d]thiazol-2-yl)acetamide]: the IC50 by setting is: under setting [1], 1600 nM; under setting [2], 3400 nM.
On the same counts, the results for `O=C(CN1CCN(C(c2ccc(F)cc2)c2ccc(F)cc2)CC1)Nc1nc2ccc(F)cc2s1` [Compound 2, 2-(4-(bis(4-fluorophenyl)methyl)piperazin-1-yl)-N-(6-fluorobenzo[d]thiazol-2-yl)acetamide] are 490 nM and 920 nM.
On the same counts, the results for `O=C(CN1CCN(C(c2ccccc2)c2ccccc2)CC1)Nc1nc2ccccc2s1` [Compound 16, 2-(4-benzhydrylpiperazin-1-yl)-N-(benzo[d]thiazol-2-yl)acetamide] are 600 nM and 1210 nM.
Consider `O=C(CN1CCN(C(c2ccccc2)c2ccccc2)CC1)Nc1nc2ccc(OC(F)(F)F)cc2s1` [Compound 18, 2-(4-benzhydrylpiperazin-1-yl)-N-(6-trifluoromethoxybenzo[d]thiazol-2-yl)acetamide], for which the IC50 amounted to 1160 nM under setting [1] and 2900 nM under setting [2].
On the same counts, the results for `COc1ccc2nc(NC(=O)CN3CCN(C(c4ccccc4)c4ccccc4)CC3)sc2c1` [Compound 19, 2-(4-benzhydrylpiperazin-1-yl)-N-(6-methoxybenzo[d]thiazol-2-yl)acetamide] are 1540 nM and 3160 nM.
On the same counts, the results for `Cc1cnc(NC(=O)CN2CCN(C(c3ccccc3)c3ccccc3)CC2)s1` [Compound 5, 2-(4-benzhydrylpiperazin-1-yl)-N-(5-methylthiazol-2-yl)acetamide] are 780 nM and 1950 nM.
On the same counts, the results for `O=C(CN1CCN(C(c2ccc(F)cc2)c2ccc(F)cc2)CC1)Nc1nccs1` [Compound 4, 2-(4-(bis(4-fluorophenyl)methyl)piperazin-1-yl)-N-(thiazol-2-yl)acetamide] are 1200 nM and 3400 nM.
Consider `O=C(CN1CCN(C(c2ccccc2)c2ccccc2)CC1)Nc1nc2ccc(F)cc2s1` [Compound 1, 2-(4-benzhydrylpiperazin-1-yl)-N-(6-fluorobenzo[d]thiazol-2-yl)acetamide], for which the concentration for half-maximal inhibition (IC50) was 400 nM under setting [1] and 770 nM under setting [2].
The like results for `O=C(CN1CCN(C(c2ccc(F)cc2)c2ccc(F)cc2)CC1)Nc1nc2ccccc2s1` [Compound 17, N-(benzo[d]thiazol-2-yl)-2-(4-(bis(4-fluorophenyl)methyl)piperazin-1-yl)acetamide] were, in that order, 530 nM and 2530 nM.
On the same counts, the results for `CS(=O)(=O)c1ccc2nc(NC(=O)CN3CCN(C(c4ccccc4)c4ccccc4)CC3)sc2c1` [Compound 20, 2-(4-benzhydrylpiperazin-1-yl)-N-(6-mesylbenzo[d]thiazol-2-yl)acetamide] are 1640 nM and 3130 nM.
The like results for `Cc1ccc(-c2csc(NC(=O)CN3CCN(C(c4ccc(F)cc4)c4ccc(F)cc4)CC3)n2)cc1` [Compound 10, 2-(4-(bis(4-fluorophenyl)methyl)piperazin-1-yl)-N-(4-p-tolylthiazol-2-yl)acetamide] were, in that order, 1910 nM and 3540 nM.
Regarding `O=C(CN1CCN(C(c2ccccc2)c2ccccc2)CC1)Nc1nc2ccccc2[nH]1` [Compound 14, 2-(4-benzhydrylpiperazin-1-yl)-N-(1H-benzo[d]imidazol-2-yl)acetamide], the half-maximal inhibitory concentration (IC50) by setting is: under setting [1], 250 nM; under setting [2], 290 nM.
The like results for `O=C(CN1CCN(C(c2ccc(F)cc2)c2ccc(F)cc2)CC1)Nc1nc2ccc(Cl)cc2s1` [Compound 12, 2-(4-(bis(4-fluorophenyl)methyl)piperazin-1-yl)-N-(6-chlorobenzo[d]thiazol-2-yl)acetamide] were, in that order, 2560 nM and 4580 nM.
